Measured values published in patent US20140374103A1, “TREATING AND RECYLCING OILFIELD WASTE WATER” (BAKER HUGHES INCORPORATED, priority 2013, published 2014).

System: bacteria in oilfield waste water
Settings: 10 mL of 30 vol % hydrogen peroxide to 250 mL raw oilfield waste water (Sample A and Sample B), room temperature, stirred; before vs after treatment; FIGS. 4 and 5
Method: The number density of the bacteria present in the oilfield waste water is determined before or after introduction of the biocide, the oxidizer, or a combination thereof. Determining the number density of the bacteria is accomplished in various manners. In an embodiment, the number density of the bacteria is determined by particle sizing such as by light scattering. In another embodiment, a small volume of oilfield water is disposed on an agar plate or slant tube and subjected to microbiological counting methods. Alternatively, the number density of the bacteria is determined by quantifying an amount of bacterial adenosine triphosphate (ATP) in a sample of the oilfield waste water, wherein the ATP is retrieved from living bacterial cells. The sample size is a portion or all of the oilfield waste water. […] The ATP quantification is accomplished by lysing the bacterial cells using an enzyme to release ATP into the sample of the oilfield waste water. An assay for the amount of ATP includes introducing a luminescent enzyme such as firefly luciferase to the sample and thereafter collecting luminescence from the luminescent enzyme. […] Thereafter, the number density of bacteria in the oilfield waste water is calculated from the amount of bacterial ATP. […] An aliquot of Sample A and Sample B was collected and subjected to ATP quantification before and after treatment with the hydrogen peroxide.

## OO [hydrogen peroxide]
  number density of bacteria in the treated water: drastically decreases the number density of bacteria
